Assay results published in PubChem BioAssay (NCI).
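Five concentrations, 48 hours, 96-well plates. GI50 = concentration required for 50% inhibition of growth. The concentration for full growth arrest is given as TGI.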

Assays:
Assay in all cases: growth of human tumour cells (NCI), 48 h
[1] = test system: OVCAR-5 ovarian
[2] = test system: SF-295 CNS
[3] = test system: HS 578T breast
[4] = test system: SN12C renal
[5] = test system: CAKI-1 renal
[6] = test system: SNB-19 CNS
[7] = test system: SK-MEL-2 melanoma
[8] = test system: EKVX NSCLC
[9] = test system: SK-MEL-5 melanoma
[10] = test system: MDA-N
[11] = test system: K-562 leukemia
[12] = test system: SNB-75 CNS
[13] = test system: COLO 205 colon
[14] = test system: HCT-15 colon
[15] = test system: HCT-116 colon
[16] = test system: NCI-H460 lung
[17] = test system: OVCAR-4 ovarian
[18] = test system: SR leukemia
[19] = test system: RPMI-8226 leukemia
[20] = test system: T-47D breast
[21] = test system: OVCAR-3 ovarian
[22] = test system: MOLT-4 leukemia
[23] = test system: HOP-92 NSCLC
[24] = test system: SK-MEL-28 melanoma
[25] = test system: SW-620 colon
[26] = test system: UACC-62 melanoma
[27] = test system: ACHN renal
[28] = test system: UACC-257 melanoma
[29] = test system: OVCAR-8 ovarian
[30] = test system: KM12 colon
[31] = test system: NCI-H23 lung
[32] = test system: HOP-62 NSCLC
[33] = test system: HL-60(TB) leukemia
[34] = test system: MALME-3M melanoma
[35] = test system: PC-3 prostate
[36] = test system: DU-145 prostate
[37] = test system: HT29 colon
[38] = test system: SF-268 CNS
[39] = test system: 786-0 renal
[40] = test system: IGROV1 ovarian
[41] = test system: BT-549 breast
[42] = test system: M14 melanoma
[43] = test system: NCI/ADR-RES ovarian
[44] = test system: CCRF-CEM leukemia
[45] = test system: LOX IMVI melanoma
[46] = test system: SF-539 CNS
[47] = test system: NCI-H522 lung
[48] = test system: A498 renal
[49] = test system: U251 CNS
[50] = test system: UO-31 renal
[51] = test system: SK-OV-3 ovarian
[52] = test system: MDA-MB-435
[53] = test system: MDA-MB-231 breast
[54] = test system: MCF7 breast
[55] = test system: NCI-H226 lung
[56] = test system: A549 NSCLC

COc1ccc2nc3cc([N+](=O)[O-])ccc3c(NCCCCCN(C)C)c2c1
GI50 [1]: 497 nM | TGI [1]: 3920 nM | GI50 [2]: 353 nM | TGI [2]: 2520 nM | GI50 [3]: 376 nM | TGI [3]: 4660 nM | GI50 [4]: 179 nM | TGI [4]: 631 nM | GI50 [5]: 306 nM | TGI [5]: 3040 nM | GI50 [6]: 301 nM | TGI [6]: 1230 nM | GI50 [7]: 20.8 nM | TGI [7]: 214 nM | GI50 [8]: 1590 nM | TGI [8]: 7270 nM | GI50 [9]: 159 nM | TGI [9]: 390 nM | GI50 [10]: 438 nM | TGI [10]: 1570 nM | GI50 [11]: 25.5 nM | TGI [11]: 353 nM | GI50 [12]: 247 nM | TGI [12]: 1100 nM | GI50 [13]: 241 nM | TGI [13]: 1680 nM | GI50 [14]: 1310 nM | GI50 [15]: 45.3 nM | TGI [15]: 1180 nM | GI50 [16]: 81.5 nM | TGI [16]: 1030 nM | GI50 [17]: 140 nM | TGI [17]: 546 nM | GI50 [18]: 159 nM | TGI [18]: 14100 nM | GI50 [19]: 74.1 nM | TGI [19]: 1250 nM | GI50 [20]: 307 nM | TGI [20]: 1730 nM | GI50 [21]: 1410 nM | TGI [21]: 12100 nM | GI50 [22]: 105 nM | TGI [22]: 1040 nM | GI50 [23]: 148 nM | TGI [23]: 490 nM | GI50 [24]: 283 nM | TGI [24]: 1180 nM | GI50 [25]: 272 nM | TGI [25]: 3000 nM | GI50 [26]: 231 nM | TGI [26]: 740 nM | GI50 [27]: 592 nM | TGI [27]: 7490 nM | GI50 [28]: 1030 nM | TGI [28]: 2660 nM | GI50 [29]: 214 nM | TGI [29]: 1320 nM | GI50 [30]: 207 nM | TGI [30]: 618 nM | GI50 [31]: 250 nM | TGI [31]: 1540 nM | GI50 [32]: 53.6 nM | TGI [32]: 301 nM | GI50 [33]: 140 nM | TGI [33]: 2520 nM | GI50 [34]: 233 nM | TGI [34]: 1030 nM | TGI [35]: 1750 nM | GI50 [36]: 286 nM | TGI [36]: 11300 nM | GI50 [37]: 64.3 nM | TGI [37]: 380 nM | GI50 [38]: 285 nM | TGI [38]: 2260 nM | GI50 [39]: 150 nM | TGI [39]: 1070 nM | GI50 [40]: 370 nM | TGI [40]: 2530 nM | GI50 [41]: 1770 nM | TGI [41]: 3550 nM | GI50 [42]: 216 nM | TGI [42]: 522 nM | GI50 [43]: 2130 nM | TGI [43]: 13500 nM | GI50 [44]: 295 nM | TGI [44]: 3090 nM | GI50 [45]: 279 nM | TGI [45]: 1100 nM | GI50 [46]: 319 nM | TGI [46]: 1660 nM | GI50 [47]: 30 nM | TGI [47]: 90.7 nM | GI50 [48]: 1070 nM | TGI [48]: 2980 nM | GI50 [49]: 218 nM | TGI [49]: 2640 nM | GI50 [50]: 819 nM | TGI [50]: 3630 nM | GI50 [51]: 351 nM | TGI [51]: 2360 nM | GI50 [52]: 271 nM | TGI [52]: 972 nM | GI50 [53]: 249 nM | TGI [53]: 1930 nM | GI50 [54]: 51.4 nM | TGI [54]: 1040 nM | GI50 [55]: 309 nM | TGI [55]: 1680 nM | GI50 [56]: 250 nM | TGI [56]: 1150 nM
